{"source": "patent US10512631B2", "about": "“Chalcone compounds” (Beth Israel Deaconess Medical Center, Inc., priority 2015, dated 2019)", "type_in_all_cases": "cell-based", "key": {"[1]": {"test_system": "PC3 cells transfected with siRNA against STMN1", "test": "Crystal violet staining of PC3 cells transfected with siRNA against STMN1", "details": "siRNA STMN1 vs control siRNA; 1 μM Compound 6, 1 μM Compound 7, 0.1 μM Compound 8, 72 hours", "procedure": "(§1) Cells were seeded at 5×10^3 concentration in 96 well plates and treated with test compounds or DMSO (0.001-10 μM) for 72 hours. Culture medium was removed and cells were stained with crystal violet solution (Sigma-Aldrich) for 15 minutes while shaking at room temperature. Crystal violet was then removed and cells were repeatedly washed in water. Attached cells stained with crystal violet were dried and then resuspended in 10% acetic acid. Absorbance was measured at 562 nm. The intensity of staining corresponded directly to the number of live cells.\nsiRNA against STMN1 and scramble siRNA were obtained from Darmacon (ONTARGET plus siRNA). PC3 cells were transiently transfected with siRNA against STMN1 or scramble siRNA using Lipofectamine 2000 (Invitrogen) as previously described in Wegiel et al., J. Biol. Chem. 2009, 7; 284(32):21369-78. Twenty four hours post-transfection, cells were split to 96 well plates and treated with test compounds for 72 hours. STMN1 levels were measured by immunoblotting to confirm successful knockdown."}, "[2]": {"test_system": "PC3", "test": "Cytoxicity / crystal violet staining, PC3", "details": "Homo sapiens, PC-3; 0.01-5 μM for 72 hours, n=4"}, "[3]": {"test_system": "A549 cells", "test": "Invasion chambers (Transwell, Matrigel)", "details": "serum chemoattractants, compared to untreated cells", "procedure": "The invasion of A549 cells was measured using Transwell chambers (Chemicon, Millipore, Calif.) according to the manufacturer's protocol. Briefly, A549 cells were treated with test compounds at 1 μM in 500 μl of DMEM medium without FBS for 24 hours. Medium in the upper chamber was serum-free while medium in the lower chamber contained 10% FBS as a source of chemoattractants. Cells that passed through the Matrigel-coated membrane were stained and photographed after 24 hours of incubation. Absorbance was measured at 562 nm by ELISA reader after dissolving of stained cells in 10% acetic acid."}, "[4]": {"test_system": "A549", "test": "Cytoxicity / crystal violet staining, A549", "details": "average of triplicates, % of apoptotic cells vs DMSO controls, N.A. = not active at 10 μM", "procedure": "(§2) PC3 (provided by Dr. Steven Balk's laboratory in Department of Medicine at Beth Israel Deaconess Medical Center), PANC02 and CRL2119 (provided by Dr. Pankaja Seth's laboratory in Department of Medicine at Beth Israel Deaconess Medical Center), A549 (ATCC) cell lines were cultured according to manufacturer's protocols. Briefly, PC3 were cultured in RPMI medium supplemented with 10% FBS (Atlanta). PANC-2, A549 and CRL2119 were cultured in DMEM High medium supplemented with 10% FBS (Atlanta). Human bronchial epithelial cells (BEC) were cultured in Airway Epithelial Cell Basal Medium with the Bronchial Epithelial cell growth kit (ATCC) according to manufacturer's protocol and used at passages 3-5.\nas §1"}, "[5]": {"test_system": "STMN1", "test": "STMN1 immunostaining and immunoblotting in PC3 cells", "details": "PC3 cells, 0.01, 0.1 and 1 μM; 30 minutes, 1 hour, 24 hours", "procedure": "Immunofluorescence and immunostaining on cell lines and tumor samples were performed as described in Wegiel et al, Cancer research 2013, 73(23), 7009-21. Anti-mouse STMN1, anti-P (Ser10)-Histone H3, and α-tubulin antibody were obtained from Cell Signaling. β-actin antibody was obtained from Sigma-Aldrich. Cells were treated with Compound 6 (1 μM) or DMSO for 48 hours. After immunofluorescence staining, the number of P-Histone H3 was quantified per field of view at 40× magnification using Zeiss Axiovert Microscope.\nSnap-frozen tissue samples were homogenized in ice-cold tissue lysis buffer (250 mM NaCl, 5 mM EDTA, 1% Triton X-100, 10 mM Tris-HCl; pH 7.5) containing the protease inhibitor cocktail Complete Mini (Roche). For co-immunoprecipitation, 200 μg protein lysates in RIPA buffer and the protease inhibitor cocktail were mixed with appropriate antibodies and 30 μl Protein A/G Plus-agarose beads (Santa Cruz Biotechnology) and then rotated for 1 hour at room temperature. The proteins were washed with RIPA buffer and eluted (95° C., 5 min in SDS loading buffer). Immunoblotting was performed as previously described in Chin et al., Proc. Natl. Acad. Sci. USA 2007, 104(12), 5109-14. Antibodies: P (Ser967)-ASK1 (Cell Signaling), Ask1 (Cell Signaling), P-STMN1 (Ser16) (Cell Signaling), STMN1 (Cell Signaling), 13-Actin (Sigma) were used at 1:1000 dilution."}, "[6]": {"test_system": "PC3 (prostate cancer), A549 (lung cancer), CLR2119 and PAN02 (pancreatic cancer)", "test": "Crystal violet staining, four cancer cell lines", "details": "range over four cell lines, 72 hours, 0.01-10 μM; highest efficiency in PC3; read-out: IC50, survival of cancer cells", "procedure": "as §2, §1"}, "[7]": {"test_system": "A549", "test": "Cytoxicity / crystal violet staining, A549", "details": "Homo sapiens, 0.01-5 μM for 72 hours, n=4"}, "[8]": {"test_system": "DNA synthesis", "test": "BrDU proliferation", "details": "data not shown"}, "[9]": {"test_system": "PC3 cells", "test": "RT2 profiler PCR array Human Cancer Pathway", "details": "after treatment vs DMSO", "procedure": "RT^2 profiler PCR array Human Cancer Pathway was purchased from SA Biosciences. RNA from PC3 cells treated with DMSO or Compound 6 were isolated and prepared for RT-PCR following manufacturer' protocol. Analysis was performed online using the software provided by SA Biosciences."}, "[10]": {"test_system": "PC3 cells", "test": "Annexin V staining", "details": "24 hours", "procedure": "PC3 cells were seeded at 1×10^5 concentration in 6 well plates 24 hours before experiment. Cells were treated with Compound 6 for 24 hours. Cells were harvested and apoptosis rate was measured using Annexin V-FITC staining according to manufacturer's protocol (BD Biosciences, San Jose, Calif.)."}, "[11]": {"test_system": "PC3", "test": "Cytoxicity / crystal violet staining, PC3", "details": "average of triplicates, % of apoptotic cells vs DMSO controls, N.A. = not active at 10 μM", "procedure": "as §2, §1"}, "[12]": {"test_system": "PC3 cells", "test": "Immunostaining of α-tubulin and β-actin in PC3 cells", "details": "24 hours", "procedure": "Immunofluorescence and immunostaining on cell lines and tumor samples were performed as described in Wegiel et al, Cancer research 2013, 73(23), 7009-21. Anti-mouse STMN1, anti-P (Ser10)-Histone H3, and α-tubulin antibody were obtained from Cell Signaling. β-actin antibody was obtained from Sigma-Aldrich. […] After immunofluorescence staining, the number of P-Histone H3 was quantified per field of view at 40× magnification using Zeiss Axiovert Microscope."}}, "data": [{"smiles": "Cn1ccc2cc(/C=C3\\CCc4ccc(F)cc4C3=O)ccc21", "note": "[Compound 6, (2E)-7-fluoro-2-[(1-methyl-1H-indol-5-yl)methylidene]-1,2,3,4-tetrahydronaphthalen-1-one]", "values": [{"measurement": "cell death in response to compound in the absence of STMN1", "setting": "[1]", "result": "attenuated in the absence of STMN1"}, {"measurement": "IC50", "setting": "[2]", "result": 147, "unit": "nM"}, {"measurement": "invasion / migration through matrigel coated chambers", "setting": "[3]", "result": "strongly inhibited invasion"}, {"measurement": "Cytoxicity (% cell killing at 10 μM) A549", "setting": "[4]", "result": 47, "unit": "%"}, {"measurement": "STMN1 level by immunoblotting", "setting": "[5]", "result": "very early (30 minutes to 1 hour) stabilization of STMN1"}, {"measurement": "IC50", "setting": "[6]", "result": "140 to 300", "unit": "nM"}, {"measurement": "IC50", "setting": "[7]", "result": 208, "unit": "nM"}, {"measurement": "DNA synthesis (BrDU proliferation)", "setting": "[8]", "result": "did not inhibit DNA synthesis"}, {"measurement": "adrenomedullin mRNA elevation", "setting": "[9]", "result": "more than 4 fold"}, {"measurement": "stathmin (STMN1) mRNA elevation", "setting": "[9]", "result": "more than 4 fold"}, {"measurement": "Annexin V-positive cells", "setting": "[10]", "result": "increased number of Annexin V-positive cells"}, {"measurement": "Cytoxicity (% cell killing at 10 μM) PC3", "setting": "[11]", "result": 49, "unit": "%"}, {"measurement": "β-actin microfilament cytoskeleton", "setting": "[12]; 1 μM", "result": "disintegrated β-actin microfilament cytoskeleton"}, {"measurement": "microtubule stability (α-tubulin immunostaining)", "setting": "[12]; Compound 6 1 μM or docetaxel 20 nM", "result": "suppressed mitotic spindle formation, as well as accumulation of α-tubulin and microtubules"}]}]}
